Laboratory results: patent US7270824B2, “Citrullinylarginine dipeptide analogs and their dermatological uses as care and treatment agents” (Exsymol S.A.M., priority 2002, dated 2007)
Non-standard residues stand in square brackets, D forms with d. Residues, ends and D or L forms follow the SMILES beside them. Cit = NC(=O)NCCC[C@H](N)C(=O)O

How the values were obtained:
cultured fibroblasts = experiment: Test 1: ATP dosage, energetic metabolism of cultured fibroblasts; format: cell-based; conditions: 1% active ingredient; fibroblasts 10^5 cells/ml, 2% fetal calf serum; control 26.7 +/- 5.2
Protocol: Test 1: influence of analogs of the citrullinylarginine natural dipeptide on the energetic metabolism of cultured fibroblasts through a triphosphate adenosine (ATP) dosage. Comparison with the purified natural dipeptide.
The fibroblasts cells are cultivated and seeded at a rate of 10^5 cells/ml in the presence of a growth factor-deprived medium (2% fetal calf serum).
On each cell suspension, the ATP quantity is measured by photometry, by establishing the decrease of absorbance at 340 nm according to following specific equations: • ATP+3-phosphoglycérate---->ADP+1,3-diphosphoglycérate • 1,3-diphosphoglycérate+NADH---->glycéraldéhyde-3-P+NAD+P

[1] = test system: human fibroblast cell line; experiment: Test 2: cell proliferation (cytostimulation), neutral red colorimetric test; format: cell-based; conditions: human fibroblasts, 2% fetal calf serum, OD 540 nm
Protocol: Test 2: evidence of the cytostimulating properties of the citrullinylarginine natural dipeptide analogs.
The test was performed on a human fibroblast cell line maintained in a culture medium filed with 2% fetal calf serum.
The assessment of the cell proliferation is carried out through a neutral red colorimetric test (Borenfreund E. and al. (1984), Toxicol. Lett., vol.24, pp.119). Cell growth variation is then obtained by measuring optical density (OD) at 540 nm, following the specific equation: […]

SMILES: N=C(N)NCCC[C@H](NC(=O)[C@@H](N)CCCNC(N)=O)C(=O)O [purified Cit-Arg, citrullinylarginine] (H-[Cit]-Arg-OH)
- ATP quantity (cultured fibroblasts): 88.62 +/− 8 nM/mg proteins
- % stimulation ([1]; 0.016% active): 2%
- % stimulation ([1]; 0.031% active): 25%
- % stimulation ([1]; 0.063% active): 30%
- % stimulation ([1]; 0.125% active): 32.5%
- % stimulation ([1]; 0.5% active): 36%

SMILES: CC(=O)N[C@@H](CCCNC(N)=O)C(=O)N[C@@H](CCCNC(=N)N)C(=O)O [NAc-Cit-Arg, N-acetyl-L-citrullinyl-L-arginine] (Ac-[Cit]-Arg-OH)
- ATP quantity (cultured fibroblasts): 90.7 +/− 6.5 nM/mg proteins
- % stimulation ([1]; 0.016% active): 5%
- % stimulation ([1]; 0.031% active): 26%
- % stimulation ([1]; 0.063% active): 34%
- % stimulation ([1]; 0.125% active): 40%
- % stimulation ([1]; 0.5% active): 45%
